# Laboratory results: patent US6825236B2, “Colchicine derivatives” (California Pacific Medical Center, priority 2003, dated 2004)
# What was measured:
# [1] = system: HCT116; assay: Cell colony formation assay; format: cell-based; settings: 72 hours with drug, colonies counted after 7 days
# Description: This example provides directions for growing cells and testing compounds of the invention for their effect on the growth of the cells. All cells were purchased from DCTDC Tumor Repository, NCI, NIH.
# Cell Colony Formation Assay
# Four hundred cells (HCT 116, PC-3) or five hundred cells (VM46) were plated in 60 mm Petri dishes containing 2.7 ml of medium (modified McCoy's 5a medium) containing 10% fetal bovine serum and 100 units/ml penicillin and […] streptomycin. The cells were incubated in a CO2 incubator at 37° C. for 5 hours for attachment to the bottom of Petri dishes. Drugs were made fresh in medium at ten times the final concentration, and then 0.3 ml of this stock solution was added to the 2.7 ml of medium in the dish. The cells were then incubated with drugs for 72 hours at 37° C. At the end of the incubation the drug-containing media were decanted, the dishes were rinsed with 4 ml of Hank's Balance Salt Solution (HBSS), 5 ml of fresh medium was added, and the dishes were returned to the incubator for colony formation. The cell colonies were counted using colony counter after incubation for 7 days for HCT116 cells and PC-3 cells and 8 days for VM46 cells, respectively.
# Values of ID50 (the drug concentration producing 50% inhibition of colony formation) may be determined for each tested compound. The directions described in this example may be used in other cells, such as DU-145.
# [2] = system: C3H/HeJ mice; assay: In vivo toxicity (MTD / nontoxicity dose), intraperitoneal injection; settings: highest dose causing no severe irreversible toxicity
# Description: This example provides directions for performing in vivo toxicity tests of the compounds of the invention on C3H/HeJ mice.
# Acute toxicities of the compounds of this invention are evaluated on C3H/HeJ mice (body weight 18-22 g). The MTD40 (maximum tolerated dose at day 40) values are determined by the standard procedure described by Gad and Chengelis (see, for example, “Acute Toxicology Testing,” 2nd Ed., Shayne O. Gad and Christopher P. Chengelis, pp. 186-195 (Academic Press).) In the consecutive type studies, 2 mice are dosed at low and moderate doses of 40 and 100 mg/kg. If no severe and irreversible toxicity (euthanasia is required) occurs at these doses, a new pair of animals is initiated at 180 mg/kg, which is 1.8 times higher than 100 mg/kg. Sequential dosages (about 3 doses on 3 pairs of animals, i.e. 2 mice for each drug dose) are increased by a factor of 1.8 until severe and irreversible toxicity (euthanasia is required) occurred. Then another pair of animals is initiated at the highest nonlethal dosage, and successive dosages were increased by a factor of 1.15. The result of this exercise is two dosages, one apparently nonlethal and the other lethal if severe and irreversible toxicity occurs and euthanasia is required, separated by a factor of 1.15. Six mice are dosed at each dosage. If no severe and irreversible toxicity occurs at the lower dosage and at least one with severe and irreversible toxicity occurs at the higher dose, then the lower dose is considered to be the MTD. The compounds of this invention are administered to C3H/HeJ mice by intraperitoneal injection (IP). Drug toxicity is evaluated on mice checked daily for 45 days. The toxicity parameters reported will be the MTD40.
# [3] = system: MTG-B mouse mammary adenocarcinoma; assay: In vivo efficacy in mice bearing MTG-B tumors; parameters: species or system C3H/HeJ mice; settings: i.p.; days from day 0; survival time of control mice generally 6 days
# Description: This example provides directions for performing in vivo efficacy tests of the compounds of the invention on C3H/HeJ mice bearing MTG-B tumors.
# Studies on the compounds of this invention are performed on C3H/HeJ mice bearing MTG-B tumors. The tumors grow exponentially following implantation into the flanks of the mice and reached a diameter of 8 mm (268.08 mm^3) by day 7 to 10. Treatment is initiated at that time, with the first day of treatment designated as day 0 for calculation and plots. The mice are injected i.p. with three drug dose levels (⅓, ½, 1 5 MTD) using both a single injection and the schedule of Q2D 5 3 (every 2 days for a total of 3 treatments at ⅓ MTD). Control groups of mice bearing 8 mm diameter tumors are treated with vehicle alone. After drug treatment, the mice are observed twice a day. When a tumor reaches 1.5 g, the mouse bearing the tumor wis euthanized. Surviving days measured from day 0 for mice treated with anticancer drugs (T) and surviving days measured from day 0 for control mice (C) are recorded. Tumor growth inhibition values (T/C %) are calculated using the formula T/C %=(surviving days of mice treated with an anticancer drug T/surviving days of control mice C) 5 100%.
# Tumor sizes may be measured by caliper every day. Daily measurement (mm) of solid tumor (length L and width W) in two dimensions is used to calculate the tumor weight [tumor weight=(length 5 width^2)/2] based on the interchangeable value of 1 mm^3=1 mg. Tumor growth delay (T−C value) is determined by calculation of the median time (in days) required for the treatment group and control group tumors to reach 1,000 mg. Tumor doubling time (Td) is measured, and tumor cell kill is calculated by the formula of log cell kill=(T−C value)/(3.32 5 Td). Regression effects after treatment may be observed and recorded (a complete regression: a regression below limit of palpation; a partial regression: a regression of more than 50% reduction in tumor mass).
# Generally, the survival time of the control mice is six (6) days. A ratio of the extra days of survival of mice treated with the compounds of the invention (compared to control) to the extra days of survival of mice treated with taxol (compared to control), can be calculated. For example, if the mice survived 18 days as compared to 9 days for taxol-treated mice, the CD/Taxol ratio would be 18−6/9−6=12/3=4 or 400%.
# The following Table II provides a summary of the in vivo toxicity and iv vivo efficacy tests described in Examples 41 and 42 for the compounds tested.
Compound,Survival (%) of HCT116 ([1]; 10 nM),Survival (%) of HCT116 ([1]; 100 nM),In Vivo Toxicity Nontoxicity Dose (ip. mg/kg) in C3H/Hej mice [2],Survival (%) of HCT116 ([1]; 1 nM),Surviving days after treatment of MTG-B mouse mammary adenocarcinoma in C3H/Hcj mice [3]
"COc1cc2c(c(OC)c1OC)-c1ccc(SC)c(=O)cc1C(NC(=O)COc1ccc(F)cc1)CC2 (stereo not drawn) [Compound 000811, N-Deacetyl-N-(4-fluorophenoxyacetyl)thiocolchicine]",50.4%,0%,150 mg/kg,,
"COc1cc2c(c(OC)c1OC)-c1ccc(SC)c(=O)cc1C(NC(=O)COc1ccc(Cl)cc1)CC2 (stereo not drawn) [Compound 000814, N-Deacetyl-N-(4-chlorophenoxyacetyl)thiocolchicine]",87.7%,0%,100 mg/kg,,
"COc1cc2c(c(OC)c1OC)-c1ccc(SC)c(=O)cc1C(NC(=O)COc1ccc(I)cc1)CC2 (stereo not drawn) [Compound 000816, N-Deacetyl-N-(4-iodophenoxyacetyl)thiocolchicine]",100%,0%,100 mg/kg,,
"COc1cc2c(c(OC)c1OC)-c1ccc(SC)c(=O)cc1C(NC(=O)COc1cc(C)ccc1C)CC2 (stereo not drawn) [Compound 000817, N-Deacetyl-N-(2,5-dimethylphenoxyacetyl)thiocolchicine]",99.8%,0%,100 mg/kg,,
"COc1cc2c(c(OC)c1OC)-c1ccc(SC)c(=O)cc1C(NC(=O)c1ccc([N+](=O)[O-])o1)CC2 (stereo not drawn) [Compound 000906, N-Deacetyl-N-(5-nitro-2-furnancarbonyl)thiocolchicine]",0%,0%,50 mg/kg,98.67%,
"COc1cc2c(c(OC)c1OC)-c1ccc(SC)c(=O)cc1C(NC(=O)c1cc(=O)c3ccccc3o1)CC2 (stereo not drawn) [Compound 000914, N-Deacetyl-N-(chromone-2-carbonyl)thiocolchicine]",3.54%,0%,150 (120) mg/kg,,
"CCC(=C(CC)c1ccc(OCC(=O)NC2CCc3cc(OC)c(OC)c(OC)c3-c3ccc(SC)c(=O)cc32)cc1)c1ccc(OCC(=O)NC2CCc3cc(OC)c(OC)c(OC)c3-c3ccc(SC)c(=O)cc32)cc1 (stereo not drawn) [Compound 000927, Dimer of N-Deacetylthiocolchicine]",100%,0%,,,
"COc1cc2c(c(OC)c1OC)-c1ccc(SC)c(=O)cc1C(NC(=O)N1c3ccccc3Sc3ccccc31)CC2 (stereo not drawn) [Compound 000928, N-Deacetyl-N-(phenothiazin-10-ylcarbonyl)thiocolchicine]",,100%,,,
"COc1cccc(OCC(=O)NC2CCc3cc(OC)c(OC)c(OC)c3-c3ccc(SC)c(=O)cc32)c1 (stereo not drawn) [Compound 001024, N-Deacetyl-N-(3-methoxyphenoxyacetyl)thiocolchicine]",98.0%,0%,,,
"COc1cc2c(c(OC)c1OC)-c1ccc(SC)c(=O)cc1C(NC(=O)COc1ccc(C#N)c(F)c1)CC2 (stereo not drawn) [Compound 001106, N-Deacetyl-N-(3-fluoro-4-cyanophenoxyacetyl)thiocoichicine]",98.51%,0%,,,
"COc1cc2c(c(OC)c1OC)-c1ccc(SC)c(=O)cc1[C@@H](NC(=O)COc1ccc([N+](=O)[O-])c(C(F)(F)F)c1)CC2 [Compound 001107, N-Deacetyl-N-(3-trifluoromethyl-4-nitropbenoxyacetyl)thiocolchicine]",,100%,,,
"COc1cc2c(c(OC)c1OC)-c1ccc(SC)c(=O)cc1C(NC(=O)c1ccc(N3C(=O)c4ccccc4C3=O)cc1)CC2 (stereo not drawn) [Compound 001114, N-Deacetyl-N-(4-phthalimidobenzoyl)thiocolchicine]",,95.05%,,,
"COc1cc2c(c(OC)c1OC)-c1ccc(SC)c(=O)cc1[C@@H](NC(=O)COc1ccc([N+](=O)[O-])cc1)CC2 [Compound 001127, N-Deacetyl-N-(4-nitrophenoxyacetyl)thiocolchicine]",75.37%,0%,,,
"COc1cc2c(c(OC)c1OC)-c1ccc(SC)c(=O)cc1C(NC(=O)COc1ccnc3ccccc13)CC2 (stereo not drawn) [Compound 001201, N-Deacetyl-N-(quinoline-4-oxyacetyl)thiocolchicine]",,95.07%,,,
"COc1cc2c(c(OC)c1OC)-c1ccc(SC)c(=O)cc1[C@@H](NC(=O)COc1cc(C(F)(F)F)cc(C(F)(F)F)c1)CC2 [Compound 001207, N-Deacetyl-N-(3,5-di-trifluoromethylphenoxyacetyl)thiocolchicine]",,3.10%,,,
"COc1cc2c(c(OC)c1OC)-c1ccc(SC)c(=O)cc1C(NC(=O)COc1ccc(OC(F)(F)F)cc1)CC2 (stereo not drawn) [Compound 001213, N-Deacetyl-N-(4-trifluoromethoxyphenoxyacetyl)thiocolchicine]",,62.56%,,,
"COc1cccc(N2CCN(CCC(=O)NC3CCc4cc(OC)c(OC)c(OC)c4-c4ccc(SC)c(=O)cc43)CC2)c1 (stereo not drawn) [Compound 001225, N-Deacetyl-N-(4-[3-methoxyphenyl]-piperazinylpropionyl)thiocolchicine]",80.5%,0%,,,
"COc1cc2c(c(OC)c1OC)-c1ccc(SC)c(=O)cc1C(NC(=O)CCN1CCN(c3cccc(C(F)(F)F)c3)CC1)CC2 (stereo not drawn) [Compound 001227, N-Deacetyl-N-(3-(4-[3-trifluoromethylphenyl]piperazinyl)propionyl)thiocolchicine]",100%,0%,,,
"COc1cc2c(c(OC)c1OC)-c1ccc(SC)c(=O)cc1C(NC(=O)COc1c(I)cc(C#N)cc1I)CC2 (stereo not drawn) [Compound 001229, N-Deacetyl-N-(2,6-diiodo-4-cyanophenoxyacetyl)thiocolchicine]",100%,0%,,,
"COc1cc2c(c(OC)c1OC)-c1ccc(SC)c(=O)cc1[C@@H](NC(C)=O)CC2 [Thiocolchicine, thiocolchicine, reference compound]",0%,0%,,100%,
N-Deacetyl-N-(4-methoxyphenoxyacetyl)thiocolchicine [Compound 000818],98.8%,0%,,,8 days
